Laboratory results from BigSolDB 2.1.

Question: Which solubility (mole fraction) (in acetone, 293.15 K) does the source give for CCCOC(=O)c1cc(O)c(O)c(O)c1 here?
Answer: 0.291

Question: And the solubility (mole fraction) (in acetone, 298.15 K)?
Answer: 0.311

Question: What about the solubility (mole fraction) (in acetone, 303.15 K) of the same molecule?
Answer: 0.33

Question: What about the solubility (mole fraction) (in acetone, 308.15 K) of the same molecule?
Answer: 0.35

Question: What about the solubility (mole fraction) (in acetone, 313.15 K) of the same molecule?
Answer: 0.369

Question: What about the solubility (mole fraction) (in acetone, 318.15 K) of the same molecule?
Answer: 0.387

Question: And the solubility (mole fraction) (in acetone, 323.15 K)?
Answer: 0.404

Question: And the solubility (mole fraction) (in acetone, 328.15 K)?
Answer: 0.412

Question: What about the solubility (mole fraction) (in acetone, 333.15 K) of the same molecule?
Answer: 0.419

Question: What about the solubility (mole fraction) (in ethanol, 293.15 K) of the same molecule?
Answer: 0.182

Question: What about the solubility (mole fraction) (in ethanol, 298.15 K) of the same molecule?
Answer: 0.201

Question: What about the solubility (mole fraction) (in ethanol, 303.15 K) of the same molecule?
Answer: 0.222

Question: What about the solubility (mole fraction) (in ethanol, 308.15 K) of the same molecule?
Answer: 0.244

Question: And the solubility (mole fraction) (in ethanol, 313.15 K)?
Answer: 0.266

Question: And the solubility (mole fraction) (in ethanol, 318.15 K)?
Answer: 0.288

Question: What about the solubility (mole fraction) (in ethanol, 323.15 K) of the same molecule?
Answer: 0.311

Question: What about the solubility (mole fraction) (in ethanol, 328.15 K) of the same molecule?
Answer: 0.323

Question: And the solubility (mole fraction) (in ethanol, 333.15 K)?
Answer: 0.334

Question: And the solubility (mole fraction) (in ethyl acetate, 293.15 K)?
Answer: 0.222

Question: What about the solubility (mole fraction) (in ethyl acetate, 298.15 K) of the same molecule?
Answer: 0.24

Question: And the solubility (mole fraction) (in ethyl acetate, 303.15 K)?
Answer: 0.258

Question: What about the solubility (mole fraction) (in ethyl acetate, 308.15 K) of the same molecule?
Answer: 0.276

Question: And the solubility (mole fraction) (in ethyl acetate, 313.15 K)?
Answer: 0.295

Question: What about the solubility (mole fraction) (in ethyl acetate, 318.15 K) of the same molecule?
Answer: 0.314

Question: What about the solubility (mole fraction) (in ethyl acetate, 323.15 K) of the same molecule?
Answer: 0.333

Question: What about the solubility (mole fraction) (in ethyl acetate, 328.15 K) of the same molecule?
Answer: 0.343

Question: And the solubility (mole fraction) (in ethyl acetate, 333.15 K)?
Answer: 0.353

Question: And the solubility (mole fraction) (in isobutanol, 293.15 K)?
Answer: 0.189

Question: And the solubility (mole fraction) (in isobutanol, 298.15 K)?
Answer: 0.209

Question: And the solubility (mole fraction) (in isobutanol, 303.15 K)?
Answer: 0.229

Question: What about the solubility (mole fraction) (in isobutanol, 308.15 K) of the same molecule?
Answer: 0.25

Question: What about the solubility (mole fraction) (in isobutanol, 313.15 K) of the same molecule?
Answer: 0.272

Question: And the solubility (mole fraction) (in isobutanol, 318.15 K)?
Answer: 0.295

Question: And the solubility (mole fraction) (in isobutanol, 323.15 K)?
Answer: 0.319

Question: And the solubility (mole fraction) (in isobutanol, 328.15 K)?
Answer: 0.331

Question: And the solubility (mole fraction) (in isobutanol, 333.15 K)?
Answer: 0.344

Question: And the solubility (mole fraction) (in isopropanol, 293.15 K)?
Answer: 0.253

Question: What about the solubility (mole fraction) (in isopropanol, 298.15 K) of the same molecule?
Answer: 0.273

Question: What about the solubility (mole fraction) (in isopropanol, 303.15 K) of the same molecule?
Answer: 0.293

Question: What about the solubility (mole fraction) (in isopropanol, 308.15 K) of the same molecule?
Answer: 0.314

Question: What about the solubility (mole fraction) (in isopropanol, 313.15 K) of the same molecule?
Answer: 0.336

Question: And the solubility (mole fraction) (in isopropanol, 318.15 K)?
Answer: 0.359

Question: What about the solubility (mole fraction) (in isopropanol, 323.15 K) of the same molecule?
Answer: 0.383

Question: And the solubility (mole fraction) (in isopropanol, 328.15 K)?
Answer: 0.396

Question: What about the solubility (mole fraction) (in isopropanol, 333.15 K) of the same molecule?
Answer: 0.409

Question: What about the solubility (mole fraction) (in methanol, 293.15 K) of the same molecule?
Answer: 0.226

Question: And the solubility (mole fraction) (in methanol, 298.15 K)?
Answer: 0.242

Question: What about the solubility (mole fraction) (in methanol, 303.15 K) of the same molecule?
Answer: 0.258

Question: What about the solubility (mole fraction) (in methanol, 308.15 K) of the same molecule?
Answer: 0.276

Question: What about the solubility (mole fraction) (in methanol, 313.15 K) of the same molecule?
Answer: 0.295

Question: And the solubility (mole fraction) (in methanol, 318.15 K)?
Answer: 0.316

Question: And the solubility (mole fraction) (in methanol, 323.15 K)?
Answer: 0.339

Question: And the solubility (mole fraction) (in methanol, 328.15 K)?
Answer: 0.351

Question: And the solubility (mole fraction) (in methanol, 333.15 K)?
Answer: 0.363

Question: What about the solubility (mole fraction) (in methyl acetate, 293.15 K) of the same molecule?
Answer: 0.244

Question: What about the solubility (mole fraction) (in methyl acetate, 298.15 K) of the same molecule?
Answer: 0.264

Question: What about the solubility (mole fraction) (in methyl acetate, 303.15 K) of the same molecule?
Answer: 0.285

Question: What about the solubility (mole fraction) (in methyl acetate, 308.15 K) of the same molecule?
Answer: 0.306

Question: What about the solubility (mole fraction) (in methyl acetate, 313.15 K) of the same molecule?
Answer: 0.329

Question: What about the solubility (mole fraction) (in methyl acetate, 318.15 K) of the same molecule?
Answer: 0.351

Question: What about the solubility (mole fraction) (in methyl acetate, 323.15 K) of the same molecule?
Answer: 0.375

Question: What about the solubility (mole fraction) (in methyl acetate, 328.15 K) of the same molecule?
Answer: 0.39

Question: What about the solubility (mole fraction) (in methyl acetate, 333.15 K) of the same molecule?
Answer: 0.402

Question: And the solubility (mole fraction) (in n-butanol, 293.15 K)?
Answer: 0.243

Question: And the solubility (mole fraction) (in n-butanol, 298.15 K)?
Answer: 0.259

Question: And the solubility (mole fraction) (in n-butanol, 303.15 K)?
Answer: 0.275

Question: What about the solubility (mole fraction) (in n-butanol, 308.15 K) of the same molecule?
Answer: 0.293

Question: And the solubility (mole fraction) (in n-butanol, 313.15 K)?
Answer: 0.312

Question: What about the solubility (mole fraction) (in n-butanol, 318.15 K) of the same molecule?
Answer: 0.333

Question: And the solubility (mole fraction) (in n-butanol, 323.15 K)?
Answer: 0.356

Question: What about the solubility (mole fraction) (in n-butanol, 328.15 K) of the same molecule?
Answer: 0.368

Question: And the solubility (mole fraction) (in n-butanol, 333.15 K)?
Answer: 0.381

Question: What about the solubility (mole fraction) (in n-propanol, 293.15 K) of the same molecule?
Answer: 0.264

Question: What about the solubility (mole fraction) (in n-propanol, 298.15 K) of the same molecule?
Answer: 0.283

Question: And the solubility (mole fraction) (in n-propanol, 303.15 K)?
Answer: 0.302

Question: What about the solubility (mole fraction) (in n-propanol, 308.15 K) of the same molecule?
Answer: 0.321

Question: What about the solubility (mole fraction) (in n-propanol, 313.15 K) of the same molecule?
Answer: 0.34

Question: And the solubility (mole fraction) (in n-propanol, 318.15 K)?
Answer: 0.36

Question: What about the solubility (mole fraction) (in n-propanol, 323.15 K) of the same molecule?
Answer: 0.382

Question: And the solubility (mole fraction) (in n-propanol, 328.15 K)?
Answer: 0.394

Question: And the solubility (mole fraction) (in n-propanol, 333.15 K)?
Answer: 0.406
